Laboratory results as given in US20240093184A1, “CHEMICALLY REVERSIBLE 2`-OH ACYLATION PROTECTS RNA FROM HYDROLYTIC AND ENZYMATIC DEGRADATION” (The Board of Trustees of the Leland Stanford Junior …, priority 2022, published 2024).

Key:
[1] = tested on: 18nt model RNA; assay: Nucleophile screen for removal (uncloaking) of 2′-acyl adducts; assay type: physicochemical; conditions: for reversibility of acyl adducts by nucleophiles: 37° C., neutral pH
Text: Nucleophiles are known to catalyze ester hydrolysis; examples include the use of imidazole and pyridine as nucleophilic catalysts. To restore biological activity of RNAs after cloaking-based stabilization, we tested uncloaking strategies to promote rapid hydrolysis of 2′-carboxyl esters with weakly basic nucleophiles (FIG. 5). […] In the library design, we avoided the use of strong Bronsted bases to prevent hydrolytic RNA backbone cleavage. Nucleophiles were screened against the 18nt model RNA containing acyl groups of each type at 37° C. and neutral pH, which identified at least 9 sensitive acylation-nucleophile pairs that promoted >50% removal of adducts within 2 hours. […] Other adducts can also be rapidly removed with designated nucleophiles, with half-lives for reversal ranging from 1.1 to 1.8 hours.
For 2′-acyl adduct by DMG, the effects of the biocompatible tris(hydroxymethyl) aminomethane (Tris) buffer alone were substantial, consistent with previous reports that Tris can hydrolyze active esters.

[2] = tested on: eGFP-mRNA; assay: Accelerated RNA aging of cloaked eGFP-mRNA in RNase-free water at 37° C., capillary electrophoresis; assay type: physicochemical; conditions: for resistance of cloaked eGFP-mRNA to thermal degradation: equivalently cloaked (˜50% of unpaired accessible 2′-OH); for extension of lifespan of eGFP-mRNA: extensive cloaking (>90% of accessible 2′-hydroxyls)
Method: (§1) In this example, the capacity to use this RNA cloaking strategy to stabilize RNA in solution was assessed with accelerated RNA aging experiments by incubating eGFP-mRNA species with or without cloaking with NAIN3 ((2-(azidomethyl)pyridin-3-yl)(1H-imidazol-1-yl)methanone) in RNase-free water at a mildly elevated temperature (37° C.) (FIG. 1). We then evaluated the lifespan of the mRNA by measuring the relative fraction of remaining fully intact RNA over time. […] Acylation-induced stabilization was further tested on a second, longer mRNA. […] No depurination of adenosine and […] was observed during the span of degradation experiments (FIG. 2). See, for example, FIG. 1.
(§2) We screened these acylimidazole reagents for modulation of RNA thermal degradation by performing accelerated RNA aging experiments with eGFP-mRNA aliquots that were equivalently cloaked (˜50% of unpaired accessible 2′-OH). Representative CE data are shown in FIG. 1 for cloaked eGFP-mRNA, which resisted thermal degradation across broad substituent types. […] Noting subtle differences in the stabilization, we hypothesized that the varying protection afforded by the reagents might arise from differential hydrolytic stability of their adducts; this was later confirmed (see below). […] To compensate for this, more extensive cloaking by N,N-dimethylglycine (DMG) acylimidazole (>90% of unpaired accessible 2″-OH) extended the lifespan of eGFP-m RNA by ˜5-fold.

[3] = tested on: EMX1-sgRNA; assay: In vitro DNA cleavage function of CRISPR sgRNA; assay type: biochemical; conditions: Tris for DMG-cloaked sgRNA, DABCO for alkoxy acylimidazole-cloaked sgRNA; neutral pH, 11 hours
[4] = tested on: RNase T1; assay: Nucleolytic degradation of cloaked eGFP-mRNA by RNase T1; assay type: biochemical
Text: (§3) In this example, we systemically surveyed protective effects of cloaking with representative RNases and biofluids, recapitulating the common enzymatic conditions RNAs encounter during storage, handling, and application (FIG. 7). […] We next evaluated whether cloaking could ameliorate mRNA degradation in fetal bovine serum (FBS), a frequent component of eukaryotic cell culture (FIG. 8). […] This is likely due in part to DMG acylimidazole retaining RNA secondary structures and helicity for maximum resistance to RNases. Acylating reagents also protect eGFP-mRNA against FBS to varying degrees. […] Thus, 2′-acylation provides context-dependent protection of long RNA (e.g., mRNA) against ribonucleolytic enzymes. Reagent DMG acylimidazole effectively shields mRNA against a broad range of RNases.

[5] = tested on: HEK293; assay: Translation of cloaked eGFP-mRNA in HEK293 cells; assay type: cell-based, human
[6] = Serum stability of cloaked RNA motifs; assay type: in vitro ADME
Text: (§4) In this example, we systematically characterized how acylimidazoles affect enzymatic degradation of EMX1-sgRNA in serum, a 105nt single guide RNA (sgRNA) for CRISPR-Cas9 gene editing (FIG. 7). […] Among all reagents, DMG acylimidazole enhanced sgRNA stability the most, by up to 14-fold. […] Although such protection most likely extends to other RNAs, the secondary structures of RNA may influence the magnitude of enhancement in enzymatic stability. […] This is likely due in part to different RNA motifs having distinct “hotspots” for enzymatic degradation, which may not be completely shielded by cloaking. Taken together, 2′-acylation effectively enhances the serum stability of RNA, the magnitude of which may be influenced by the length and structure of the underlying RNA.

[7] = tested on: RNase A; assay: Nucleolytic degradation of cloaked eGFP-mRNA by RNase A; assay type: biochemical
Text: as §3

[8] = tested on: SW480; assay: Translation of cloaked eGFP-mRNA in SW480 cells; assay type: cell-based, human
[9] = tested on: eGFP-mRNA; assay: In vitro translation assay of cloaked and uncloaked eGFP-mRNA; assay type: biochemical
Text: introduced into the coding region of mRNAs. Thus, we investigated whether Tris could restore the translation of a model eGFP-mRNA densely cloaked (50%) by DMG acylimidazole. […] To explore the generality of this observation, we applied the methods to an in vitro transcribed CRISPR sgRNA. Acylation of EMX1-sgRNA by other reagents blocked its cleavage function (<10%) in vitro.

[10] = Serum stability of cloaked EMX1-sgRNA; assay type: in vitro ADME; conditions: 105nt sgRNA
Text: as §4

[11] = tested on: EMX1-sgRNA; assay: Storage of cloaked EMX1-sgRNA in frozen RNase-free water (−80° C.); assay type: physicochemical; conditions: 9 months
Method: FIG. 4. Integrity of cloaked EMX1-sgRNA (105 nt) upon incubation in frozen RNase-free water after 9 months (−80° C.).
as §2

[12] = tested on: HeLa cells; assay: Translation of cloaked d2GFP-mRNA in HeLa cells; assay type: cell-based, human
Method: We therefore adopted a reporter system employing mRNA encoding a destabilized green fluorescent protein d2GFP, where both mRNA and protein degradation occur with similar half-lives of ˜2-3 hours. We observed that the translation of unprotected d2GFP-mRNA quickly descended after peaking. […] Taken together, RNA cloaking by DMG derivative DMG acylimidazole effectively extended d2GFP-mRNA functional lifespan and translation, providing insights for the potential use of reversible 2′-acylation as a modulator of mRNA translation kinetics.

[13] = tested on: Fluc-mRNA; assay: Accelerated RNA aging of cloaked Fluc-mRNA in water at 37° C.; assay type: physicochemical; conditions: extensive cloaking (>90% of unpaired 2′-hydroxyls), six days in water
Method: as §1

[14] = tested on: HeLa cells; assay: Translation of cloaked eGFP-mRNA in transfected HeLa cells (flow cytometry, fluorescence imaging); assay type: cell-based, human; conditions: intermediately cloaked, over two days
Text: Intact cells maintain high intracellular concentrations of nucleophilic species such as cysteine and glutathione. […] In this example, we employed cloaked mRNAs encoding fluorescent reporter proteins. Indeed, we observed the emergence of strong green fluorescence signals by flow cytometry over a period of two days in HeLa cells transfected with intermediately DMG-cloaked eGFP-mRNA. […] Moreover, the delayed translation of cloaked mRNAs reflects an initial uncloaking step, which when occurring over time may provide slow-release translation kinetics—reducing an early expression peak and extending the duration of translation (see below). Finally, we also observed that translation of eGFP-mRNA with alkoxyl acyl adduct can also be restored in cells, highlighting possible control over mRNA release kinetics by modification of the acyl group.

[15] = tested on: mRNAs (TBP, PPIE, and PSMB6); conditions: HEK293 total RNA cloaked with DMG acylimidazole; Tris alone, neutral pH, 24 h
Method: For instance, the ability of a single 2′-acylation to halt reverse transcriptase during primer extension necessitates efficient 2′-deacylation to avoid premature reverse transcription termination. […] We isolated and cloaked total cellular RNA from HEK293 cells with DMG acylimidazole, and recovery efficiency was evaluated for three representative mRNAs by the reverse transcription efficiencies. […] Recent experiments have shown that local 2′-acylation can terminate translation when

CC(=O)n1ccnc1 [acetylimidazole]
reversibility of acyl adducts by nucleophiles [1]: relatively resistant to reversal by nonbasic nucleophiles
reversal of 2′-acyl adduct by Tris buffer alone [1]: not reversed by Tris
resistance of cloaked eGFP-mRNA to thermal degradation [2]: attenuated RNA hydrolysis

O=C(c1cccnc1)n1ccnc1 [nicotinic acid acylimidazole]
reversibility of acyl adducts by nucleophiles [1]: relatively resistant to reversal by nonbasic nucleophiles

C1CN2CCN1CC2 [DABCO, 1,4-diazabicyclo[2.2.2]octane]
restoration of DNA cleavage of cloaked sgRNA [3]: fully restored DNA cleavage

CN(C)CC(=O)n1ccnc1 [DMG acylimidazole, N,N-dimethylglycine (DMG) acylimidazole]
protection of eGFP-mRNA from nucleolytic degradation by RNase T1 [4]: effectively shielded
recovery of eGFP expression [5]: confirmed generality
reversal of 2′-acyl adduct by Tris buffer alone [1]: substantial
serum stability of a bulge loop RNA motif ([6]; bulge loop): increases the serum stability
serum stability of an internal loop motif ([6]; internal loop): minimal enhancement
serum stability of a structurally complex pseudoknot ([6]; pseudoknot): increases the serum stability
resistance of cloaked eGFP-mRNA to thermal degradation [2]: slightly reduced enhancement of RNA thermal stability
extension of lifespan of eGFP-mRNA ([2]; RNase-free water, 37° C.): ~5 fold
protection of eGFP-mRNA from nucleolytic degradation by RNase A [7]: effectively shielded
recovery of eGFP expression [8]: confirmed generality
translation of cloaked eGFP-mRNA in vitro ([9]; eGFP-mRNA densely cloaked (50%)): strongly blocked the translation
increase in serum stability of EMX1-sgRNA [10]: up to 14 fold
stability of in vitro transcribed EMX1-sgRNA on storage [11]: enhanced stability
enhancement of total protein output of d2GFP-mRNA ([12]; HeLa cells, versus unprotected d2GFP-mRNA): 31%
duration of sustained d2GFP-mRNA translation at its peak level ([12]; intermediate cloaking, HeLa): ~10 h

[N-]=[N+]=NCc1ncccc1C(=O)n1ccnc1 [NAIN3, (2-(azidomethyl)pyridin-3-yl)(1H-imidazol-1-yl)methanone, reference compound]
reversibility of acyl adducts by nucleophiles [1]: can be reversed via Staudinger reaction
backbone cleavage of Fluc-mRNA [13]: almost completely blocked backbone cleavage
extension of lifespan of eGFP-mRNA ([2]; RNase-free water, 37° C.): -7 fold
extension of lifespan of intact eGFP-mRNA ([2]; intermediate cloaking (˜50% of unpaired 2′-hydroxyls), RNase-free water, 37° C.): -3 fold
damage to the nucleobases (deamination of adenine and cytosine) ([2]; within the timespan of the aging experiment): No damage to the nucleobases
translation of cloaked eGFP-mRNA in cells [14]: translation remained strongly inhibited

CCOCC(=O)n1ccnc1 [ethoxyacetyl compound]
resistance of cloaked eGFP-mRNA to thermal degradation [2]: providing the most stability

tris(hydroxymethyl)aminomethane
recovery of reverse transcription of cloaked mRNAs [15]: reinstated the reverse transcription
restoration of eGFP expression ([9]; DMG acylimidazole-cloaked eGFP-mRNA, Tris, pH=7.5 at 37° C.): up to 87%
restoration of DNA cleavage of cloaked sgRNA [3]: fully restored DNA cleavage
